In US11051515B2, “3-acyl-benzamides and their use as herbicides” (Bayer Aktiengesellschaft, priority 2017, dated 2021):

How the values were obtained:
ALOMY [1] = experiment: Pre-emergence action against ALOMY; assay type: in vivo, Alopecurus myosuroides; settings: Alopecurus myosuroides, 504 h; dosage 320 g/ha; pre-emergence; scored visually after 3 weeks vs untreated controls; 100% = plants have died, 0% = like control plants; read-out: Pre-emergence action against ALOMY (herbicidal activity in percent)
Procedure, shortened: (§1)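 Seeds sown in sandy loam in wood-fiber pots and covered with soil. Greenhouse growth; visual damage scored after 3 weeks versus untreated controls (100% = dead, 0% = like control).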

AVEFA [2] = experiment: Pre-emergence action against AVEFA; assay type: in vivo, Avena fatua; settings: Avena fatua, 504 h, dosage 320 g/ha, scored visually after 3 weeks vs untreated controls, read-out: Pre-emergence action against AVEFA (herbicidal activity)
Procedure, shortened: as §1

CYPES [3] = experiment: Pre-emergence action against CYPES; assay type: in vivo, Cyperus esculentus; settings: Cyperus esculentus, 504 h; pre-emergence, dosage 320 g/ha, scored visually after 3 weeks vs untreated controls; read-out: Pre-emergence action against CYPES (herbicidal activity)
Procedure, shortened: as §1

ECHCG [4] = experiment: Pre-emergence action against ECHCG; assay type: in vivo, Echinochloa crus-galli; settings: Echinochloa crus-galli, 504 h; pre-emergence, dosage 320 g/ha, scored visually after 3 weeks vs untreated controls; read-out: Pre-emergence action against ECHCG (herbicidal activity)
Procedure, shortened: as §1

LOLMU [5] = experiment: Pre-emergence action against LOLMU; assay type: in vivo, Lolium multiflorum; settings: Lolium multiflorum, 504 h, dosage 320 g/ha, scored visually after 3 weeks vs untreated controls, read-out: Pre-emergence action against LOLMU (herbicidal activity)
Procedure, shortened: as §1

SETVI [6] = experiment: Pre-emergence action against SETVI; assay type: in vivo, Setaria viridis; settings: Setaria viridis, 504 h; pre-emergence, dosage 320 g/ha, scored visually after 3 weeks vs untreated controls; read-out: SETVI (Table B8, pre-emergence herbicidal activity)
Procedure, shortened: as §1

ABUTH [7] = experiment: Pre-emergence action against ABUTH; assay type: in vivo, Abutilon theophrasti; settings: Abutilon theophrasti, 504 h; pre-emergence, dosage 320 g/ha, scored visually after 3 weeks vs untreated controls; read-out: Pre-emergence action against ABUTH (herbicidal activity)
Procedure, shortened: as §1

AMARE [8] = experiment: Pre-emergence action against AMARE; assay type: in vivo, Amaranthus retroflexus; settings: Amaranthus retroflexus, 504 h; pre-emergence, dosage 320 g/ha, scored visually after 3 weeks vs untreated controls; read-out: Pre-emergence action against AMARE (herbicidal activity)
Procedure, shortened: as §1

MATIN [9] = experiment: Pre-emergence action against MATIN; assay type: in vivo, Matricaria inodora; settings: Tripleurospermum inodorum, 504 h; Dosage 320 g/ha, pre-emergence
Procedure, shortened: as §1

PHBPU [10] = experiment: Pre-emergence action against PHBPU; assay type: in vivo, Pharbitis purpurea; settings: Ipomoea purpurea, 504 h; Dosage 320 g/ha, pre-emergence
Procedure, shortened: as §1

POLCO [11] = experiment: Pre-emergence action against POLCO; assay type: in vivo, Polygonum convolvulus; settings: Fallopia convolvulus, 504 h; Dosage 320 g/ha, pre-emergence
Procedure, shortened: as §1

STEME [12] = experiment: Pre-emergence action against STEME; assay type: in vivo, Stellaria media; settings: Stellaria media, 504 h; Dosage 320 g/ha, pre-emergence
Procedure, shortened: as §1

VERPE [13] = experiment: Pre-emergence action against VERPE; assay type: in vivo, Veronica persica; settings: Veronica persica, 504 h; Dosage 320 g/ha, pre-emergence
Procedure, shortened: as §1

ALOMY [14] = experiment: Post-emergence action against ALOMY; assay type: in vivo, Alopecurus myosuroides; settings: Alopecurus myosuroides, 504 h; Dosage 80 g/ha, post-emergence
Procedure, shortened: (§2)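 Post-emergence foliar spray on greenhouse plants at the one-leaf stage, using wettable-powder or emulsion-concentrate formulations in water (600 to […], plus 0.2% wetting agent). Damage scored by eye roughly 3 weeks later against untreated plants: 0% = like control, 100% = dead.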

CYPES [15] = experiment: Post-emergence action against CYPES; assay type: in vivo, Cyperus esculentus; settings: Cyperus esculentus, 504 h; post-emergence, dosage 80 g/ha, visual assessment about 3 weeks after treatment vs untreated controls; read-out: Post-emergence action against CYPES (herbicidal action in percent)
Procedure, shortened: as §2

ECHCG [16] = experiment: Post-emergence action against ECHCG; assay type: in vivo, Echinochloa crus-galli; settings: Echinochloa crus-galli, 504 h; post-emergence, dosage 80 g/ha, visual assessment about 3 weeks after treatment vs untreated controls; read-out: Post-emergence action against ECHCG (herbicidal action in percent)
Procedure, shortened: as §2

LOLMU [17] = experiment: Post-emergence action against LOLMU; assay type: in vivo, Lolium multiflorum; settings: Lolium multiflorum, 504 h, dosage 80 g/ha, visual assessment about 3 weeks after treatment vs untreated controls, read-out: Post-emergence action against LOLMU (herbicidal action in percent)
Description: Seeds of monocotyledonous and dicotyledonous weed and crop plants are laid out in sandy loam soil in wood-fiber pots, covered with soil and cultivated in a greenhouse under good growth conditions. 2 to 3 weeks after sowing, the test plants are treated at the one-leaf stage. The compounds of the invention, formulated in the form of wettable powders (WP) or as emulsion concentrates (EC), are then sprayed onto the green parts of the plants in the form of an aqueous suspension or emulsion at a water application rate equating to […], with addition of 0.2% wetting agent. After the test plants have been left to stand in the greenhouse under optimal growth conditions for about 3 weeks, the action of the preparations is assessed visually in comparison to untreated controls (herbicidal action in percent (%): 100% activity=the plants have died, 0% activity=like control plants). […] At the same time, inventive compounds leave Gramineae crops such as barley, wheat, rye, millet/Sorghum, corn or rice virtually undamaged when applied post-emergence, even at high active ingredient dosages. In addition, some substances are also harmless to dicotyledonous crops such as soya, cotton, oilseed rape, sugar beet or potatoes. Some of the compounds according to the invention have high selectivity and are therefore suitable for controlling unwanted vegetation in agricultural crops by the post-emergence method. The data of Tables B18 to B34 below illustrate, in an exemplary manner, the […] herbicidal action of the compounds according to the invention, the herbicidal activity being stated in percent.

SETVI [18] = experiment: Post-emergence action against SETVI; assay type: in vivo, Setaria viridis; settings: Setaria viridis, 504 h; post-emergence, dosage 80 g/ha, visual assessment about 3 weeks after treatment vs untreated controls; read-out: Post-emergence action against SETVI (herbicidal action in percent)
Procedure, shortened: as §2

ABUTH [19] = experiment: Post-emergence action against ABUTH; assay type: in vivo, Abutilon theophrasti; settings: Abutilon theophrasti, 504 h; post-emergence, dosage 80 g/ha, visual assessment about 3 weeks after treatment vs untreated controls; read-out: Post-emergence action against ABUTH (herbicidal action in percent)
Procedure, shortened: as §2

AMARE [20] = experiment: Post-emergence action against AMARE; assay type: in vivo, Amaranthus retroflexus; settings: Amaranthus retroflexus, 504 h; post-emergence, dosage 80 g/ha, visual assessment about 3 weeks after treatment vs untreated controls; read-out: Post-emergence action against AMARE (herbicidal action in percent)
Procedure, shortened: as §2

MATIN [21] = experiment: Post-emergence action against MATIN; assay type: in vivo, Matricaria inodora; settings: Tripleurospermum inodorum, 504 h; post-emergence, dosage 80 g/ha, visual assessment about 3 weeks after treatment vs untreated controls; read-out: Post-emergence action against MATIN (herbicidal action in percent)
Procedure, shortened: as §2

PHBPU [22] = experiment: Post-emergence action against PHBPU; assay type: in vivo, Pharbitis purpurea; settings: Ipomoea purpurea, 504 h; post-emergence, dosage 80 g/ha
Procedure, shortened: as §2

POLCO [23] = experiment: Post-emergence action against POLCO; assay type: in vivo, Polygonum convolvulus; settings: Fallopia convolvulus, 504 h; post-emergence, dosage 80 g/ha
Procedure, shortened: as §2

STEME [24] = experiment: Post-emergence action against STEME; assay type: in vivo, Stellaria media; settings: Stellaria media, 504 h; post-emergence, dosage 80 g/ha
Procedure, shortened: as §2

VIOTR [25] = experiment: Post-emergence action against VIOTR; assay type: in vivo, Viola tricolor; settings: Viola tricolor, 504 h; post-emergence, dosage 80 g/ha
Procedure, shortened: as §2

VERPE [26] = experiment: Post-emergence action against VERPE; assay type: in vivo, Veronica persica; settings: Veronica persica, 504 h, dosage 80 g/ha
Procedure, shortened: as §2

VIOTR [27] = experiment: Pre-emergence action against VIOTR; assay type: in vivo, Viola tricolor; settings: Viola tricolor, 504 h; Dosage 320 g/ha, pre-emergence
Procedure, shortened: as §1

AVEFA [28] = experiment: Post-emergence action against AVEFA; assay type: in vivo, Avena fatua; settings: Avena fatua, 504 h; post-emergence, dosage 80 g/ha, visual assessment about 3 weeks after treatment vs untreated controls; read-out: Post-emergence action against AVEFA (herbicidal action in percent)
Procedure, shortened: as §2

| SMILES | pest or weed control at 320 g/ha (ALOMY [1]) [%] | pest or weed control at 320 g/ha (AVEFA [2]) [%] | pest or weed control at 320 g/ha (ECHCG [4]) [%] | pest or weed control at 320 g/ha (LOLMU [5]) [%] | pest or weed control at 320 g/ha (SETVI [6]) [%] | pest or weed control at 320 g/ha (ABUTH [7]) [%] | pest or weed control at 320 g/ha (AMARE [8]) [%] | pest or weed control at 320 g/ha (MATIN [9]) [%] | pest or weed control at 320 g/ha (POLCO [11]) [%] | pest or weed control at 320 g/ha (STEME [12]) [%] | pest or weed control at 320 g/ha (VERPE [13]) [%] | pest or weed control at 80 g/ha (ALOMY [14]) [%] | pest or weed control at 80 g/ha (ECHCG [16]) [%] | pest or weed control at 80 g/ha (LOLMU [17]) [%] | pest or weed control at 80 g/ha (SETVI [18]) [%] | pest or weed control at 80 g/ha (ABUTH [19]) [%] | pest or weed control at 80 g/ha (AMARE [20]) [%] | pest or weed control at 80 g/ha (MATIN [21]) [%] | pest or weed control at 80 g/ha (PHBPU [22]) [%] | pest or weed control at 80 g/ha (STEME [24]) [%] | further results |
| --- | --- | --- | --- | --- | --- | --- | --- | --- | --- | --- | --- | --- | --- | --- | --- | --- | --- | --- | --- | --- | --- |
| CCC(=O)c1c(Cl)ccc(C(=O)Nc2nnnn2C)c1Cl [1-115] | 100 | 100 | 100 | 100 | 90 | 100 | 100 | 100 | 80 | 100 | 100 | 90 | 90 | 90 | 90 | 90 | 90 | 100 | 90 | 100 | pest or weed control at 320 g/ha (CYPES [3]): 100%; pest or weed control at 320 g/ha (PHBPU [10]): 90%; pest or weed control at 80 g/ha (CYPES [15]): 90%; pest or weed control at 80 g/ha (POLCO [23]): 100%; pest or weed control at 80 g/ha (VIOTR [25]): 100%; pest or weed control at 80 g/ha (VERPE [26]): 100% |
| Cn1nnnc1NC(=O)c1ccc(Cl)c(C(=O)C2CC2)c1Cl [1-116] | 100 | 100 | 100 | 100 | 100 | 90 | 100 | 100 | 90 | 90 | 100 | 90 | 90 | 100 | 100 | 90 | 90 | 90 | 90 | 100 | pest or weed control at 320 g/ha (VIOTR [27]): 100%; pest or weed control at 80 g/ha (AVEFA [28]): 100%; pest or weed control at 80 g/ha (VIOTR [25]): 90% |
